Where two headings read alike, the source gives them in different places.
Tests used:
Assay type in all cases: cell-based
[1] = test system: triple negative breast cancer cell lines; experiment: Co-administration, cell viability (Cell Titer Glo), triple negative breast cancer
Protocol: (§1) Cells were treated with a dose titration of either CB-839, an anti-cancer agent or a mixture thereof for 72 hours in growth media. At the end of the incubation, cell viability was measured using Cell Titer Glo as per manufacturer's protocol (Promega, Madison, Wis.). Cell proliferation for all compound treatments are represented as bar graphs, where luminescent output, Relative Light Units (RLU), correlates with viable cell number. Combination indices were calculated using the Calcusyn program (biosoft.com) and reported for individual mixtures of CB-839 and each agent.

H1650 NSCLC cell lines = experiment: Co-administration, cell viability, NSCLC (FIG. 26)
Protocol: as §1

[2] = test system: renal clear cell carcinoma cells; experiment: Co-administration, cell viability, renal clear cell carcinoma (FIG. 25); conditions: combination with everolimus
Protocol: as §1

lung cancer cell lines = experiment: Co-administration, cell viability (Cell Titer Glo), lung cancer
Protocol: as §1

[3] = test system: renal cell carcinoma cell lines; experiment: Co-administration, cell viability (Cell Titer Glo), renal cell carcinoma
Protocol: as §1

[4] = test system: multiple myeloma cell lines; experiment: Co-administration, cell viability (Cell Titer Glo), multiple myeloma
Protocol: as §1

P493-6 (myc “on”) cells = experiment: Cell Proliferation Assay; conditions: read-out: Cell prolif P493 72 h IC50
Protocol: P493-6 (myc “on”) cells were maintained in growth media (RPMI-1640, 10% FBS, 2 mM glutamine, 100 units/ml Penicillin and 100 μg/ml streptomycin) at 37° C. with 5% CO2. For compound assay, P493-6 cells were plated in 96-well V-bottom plates on the day of compound addition in 50 μl of growth media at a cell density of 200,000 cells/ml (10,000 cells/well). Compounds were serially diluted in 100% DMSO at 200-times the final concentration. Compounds were diluted 100-fold into growth media and then 50 μl of this mixture was added to cell plates making the final concentration of DMSO 0.5%. Cells were incubated with compound for 72 hrs at 37° C. with 5% CO2 and analyzed for antiproliferative effects either by Cell Titer Glo (Promega) or FACS analysis using the Viacount (Millipore) kit on the Guava instrument.

O=C(Cc1cccc(OC(F)(F)F)c1)Nc1ccc(CCCCc2nnc(NC(=O)Cc3ccccn3)s2)nn1 [CB-839]
interaction of CB-839 with carboplatin ([1]; FIG. 6, combination with carboplatin, 72 hours): therapeutic interaction | interaction of CB-839 with cytidine analog gemcitabine ([1]; FIG. 7, combination with gemcitabine, 72 hours): additive effect | interaction of CB-839 with doxorubicin ([1]; FIG. 8, combination with doxorubicin, 72 hours): therapeutic interaction | interaction of CB-839 with mTOR inhibitor everolimus ([1]; FIG. 9, combination with everolimus, 72 hours): synergy | interaction of CB-839 with AKT inhibitor MK2206 ([1]; FIG. 10, combination with MK2206, 72 hours): synergy | effect of the combination of CB-839 and erlotinib (H1650 NSCLC cell lines; combination with erlotinib, erlotinib-resistant model): enhances the anti-tumor effects of each individual compound | effect of the combination of CB-839 and everolimus [2]: synergistic antiproliferative activity | interaction of CB-839 with EGFR inhibitor erlotinib (lung cancer cell lines; FIG. 11, combination with erlotinib, 72 hours): synergy | interaction of CB-839 with MEK inhibitor trametinib (lung cancer cell lines; FIG. 12, combination with trametinib, 72 hours): synergy | interaction of CB-839 with mTOR inhibitor everolimus (lung cancer cell lines; FIG. 13, combination with everolimus, 72 hours): synergy | interaction of CB-839 with mTOR inhibitor temsirolimus (lung cancer cell lines; FIG. 14, combination with temsirolimus, 72 hours): synergy | interaction of CB-839 with AKT inhibitor MK2206 (lung cancer cell lines; FIG. 15, combination with MK2206, 72 hours): synergy | interaction of CB-839 with PI3K/mTOR inhibitor BEZ235 (lung cancer cell lines; FIG. 16, combination with BEZ235, 72 hours): synergy | interaction of CB-839 with RTK inhibitor sorafenib ([3]; FIG. 17, combination with sorafenib, 72 hours): synergy | interaction of CB-839 with C-kit and pan-RTK inhibitor sunitinib ([3]; FIG. 18, combination with sunitinib, 72 hours): synergy | interaction of CB-839 with pan-RTK inhibitor pazopanib ([3]; FIG. 19, combination with pazopanib, 72 hours): synergy | interaction of CB-839 with mTOR inhibitor everolimus ([3]; FIG. 20, combination with everolimus, 72 hours): synergy | interaction of CB-839 with mTOR inhibitor temsirolimus ([3]; FIG. 21, combination with temsirolimus, 72 hours): synergy | interaction of CB-839 with MEK inhibitor trametinib ([3]; FIG. 22, combination with trametinib, 72 hours): synergy | interaction of CB-839 with AKT inhibitor MK2206 ([3]; FIG. 23, combination with MK2206, 72 hours): synergy | interaction of CB-839 with PI3K/mTOR inhibitor BEZ235 ([3]; FIG. 24, combination with BEZ235, 72 hours): therapeutic interaction | interaction of CB-839 with vincristine ([4]; FIG. 1, combination with vincristine, 72 hours): synergy | interaction of CB-839 with AKT inhibitor MK2206 ([4]; FIG. 2, combination with MK2206, 72 hours): strong synergy | interaction of CB-839 with mTOR inhibitor everolimus ([4]; FIG. 3, combination with everolimus, 72 hours): strong synergy | interaction of CB-839 with MEK inhibitor trametinib ([4]; FIG. 4, combination with trametinib, 72 hours): strong synergy | interaction of CB-839 with RTK inhibitor sorafenib ([4]; FIG. 5, combination with sorafenib, 72 hours): strong synergy

[2H]C([2H])(CCc1nnc(N)s1)C([2H])([2H])c1ccc(NC(=O)Cc2cccc(OC(F)(F)F)c2)nn1 [Compound 726]
IC50 (P493-6 (myc “on”) cells; P493-6, 72 h): 610 nM

[2H]C([2H])(CCc1nnc(NC(=O)Cc2ccccn2)s1)C([2H])([2H])c1ccc(NC(=O)Cc2cccc(OC(F)(F)F)c2)nn1 [Compound 727]
IC50 (P493-6 (myc “on”) cells; 72 h): 12 nM

C#Cc1cccc(Nc2ncnc3cc(OCCOC)c(OCCOC)cc23)c1 [erlotinib, reference compound]
sensitivity of the cells to erlotinib (H1650 NSCLC cell lines; erlotinib alone): resistant

Source: patent US9687485B2, “Combination therapy with glutaminase inhibitors” (Calithera Biosciences, Inc., priority 2014, dated 2017)
